Experiments:
Experiment in all cases: relative viability (nuclei count vs DMSO), 5 days (fraction); higher = more cells survive
[1] = compound: CC1(COc2ccc3c(c2)ncn3-c2ccc3cccc(N4CCC(N)CC4)c3n2)COC1 [Crenolanib] + CS(=O)(=O)CCNCc1ccc(-c2ccc3ncnc(Nc4ccc(OCc5cccc(F)c5)c(Cl)c4)c3c2)o1 [Lapatinib] (partner 2 µM)
In short: (§1)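 Relative viability was taken as the ratio of nuclei in treated wells to nuclei in vehicle wells. Lung cancer cell lines in 1536-well plates received compounds by pin tool one day after seeding, either one drug alone or a fixed anchor-drug dose plus five library-drug doses (not always all listed) in √10 steps. Nuclei were counted on 4× images after 5 days of treatment, and values are medians of duplicate plates.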

[2] = compound: CC1(COc2ccc3c(c2)ncn3-c2ccc3cccc(N4CCC(N)CC4)c3n2)COC1 [Crenolanib] + CS(=O)(=O)N1CCN(Cc2cc3nc(-c4cccc5[nH]ncc45)nc(N4CCOCC4)c3s2)CC1 [Pictilisib] (partner 1 µM)
In short: as §1

[3] = compound: O=C1NC(=O)[C@@H](c2cn3c4c(cccc24)CCC3)[C@@H]1c1c[nH]c2ccccc12 [Tivantinib] + CS(=O)(=O)CCNCc1ccc(-c2ccc3ncnc(Nc4ccc(OCc5cccc(F)c5)c(Cl)c4)c3c2)o1 [Lapatinib] (partner 2 µM)
In short: as §1

[4] = compound: O=C1NC(=O)[C@@H](c2cn3c4c(cccc24)CCC3)[C@@H]1c1c[nH]c2ccccc12 [Tivantinib] + Cc1nc(NC(=O)N2CCC[C@H]2C(N)=O)sc1-c1ccnc(C(C)(C)C(F)(F)F)c1 [Alpelisib] (partner 2 µM)
In short: as §1

Row | Cell Line | relative viability ([1]; first compound 0.01 µM) | relative viability ([1]; first compound 0.03162 µM) | relative viability ([1]; first compound 0.1 µM) | relative viability ([1]; first compound 0.3162 µM) | relative viability ([1]; first compound 1 µM) | relative viability ([2]; first compound 0.01 µM) | relative viability ([2]; first compound 0.03162 µM) | relative viability ([2]; first compound 0.1 µM) | relative viability ([2]; first compound 0.3162 µM) | relative viability ([2]; first compound 1 µM) | relative viability ([3]; first compound 0.01 µM) | relative viability ([3]; first compound 0.03162 µM) | relative viability ([3]; first compound 0.1 µM) | relative viability ([3]; first compound 0.3162 µM) | relative viability ([4]; first compound 0.01 µM) | relative viability ([4]; first compound 0.03162 µM) | relative viability ([4]; first compound 0.1 µM) | relative viability ([4]; first compound 0.3162 µM)
1 | HCC-78 | 0.138 | 0.637 | 0.705 | 0.71 | 0.467 | 0.24 | 0.223 | 0.239 | 0.216 | 0.237 | 0.477 | 0.786 | 0.647 | 0.456 | 0.412 | 0.306 | 0.34 | 0.204
2 | HOP-62 | 0.869 | 1 | 0.991 | 1.08 | 0.834 | 0.724 | 0.946 | 0.602 | 0.768 | 0.517 | 1.15 |  | 0.956 | 1.16 | 1.04 |  | 0.648 | 0.923
3 | NCI-H2405 | 1.02 | 1.13 | 0.85 | 0.998 | 0.948 | 0.473 | 0.417 | 0.285 | 0.347 | 0.375 | 1.11 | 1.13 | 1.06 | 1.08 | 1.12 | 0.751 | 0.777 | 0.483
4 | PC-3 [JPC-3] | 0.452 | 0.45 | 0.511 | 0.449 | 0.452 | 0.736 | 0.635 | 0.746 | 0.695 | 0.703 | 0.433 | 0.546 | 0.424 | 0.486 | 0.993 | 1.06 | 1.05 | 0.775
5 | NCI-H1666 | 0.772 | 0.579 | 0.799 | 0.872 | 0.509 | 0.605 | 0.352 | 0.401 | 0.406 | 0.411 | 0.743 | 0.609 | 0.574 | 0.574 | 0.902 | 0.904 | 0.948 | 0.608
6 | HCC-15 | 0.829 | 0.895 | 0.807 | 0.83 | 0.793 | 0.695 | 0.731 | 0.696 | 0.644 | 0.671 | 0.815 | 0.846 | 0.873 | 0.829 | 0.942 | 0.832 | 0.799 | 0.996
7 | NCI-H1651 | 0.83 | 0.979 | 0.9 | 0.945 | 0.767 | 0.568 | 0.511 | 0.52 | 0.548 | 0.502 | 0.866 | 0.691 | 0.799 | 0.929 | 1.04 | 0.856 | 1.01 | 0.915
8 | NCI-H1395 | 1.02 | 1.06 | 0.915 | 0.942 | 0.971 | 0.655 | 0.562 | 0.708 | 0.789 | 0.553 | 1.23 | 1.18 | 0.981 | 0.992 | 1.18 | 1.23 | 1 | 0.878
9 | EPLC-272H |  | 0.877 | 0.722 | 0.977 | 1.02 |  | 0.327 | 0.318 | 0.255 | 0.338 | 1.08 | 0.711 | 0.846 | 0.383 | 0.975 | 0.922 | 0.836 | 0.672
10 | LXF-289 | 0.887 | 0.918 | 0.889 | 0.908 | 0.838 | 0.761 | 0.666 | 0.733 | 0.916 | 0.755 | 0.925 | 0.861 | 0.858 | 0.968 | 1.06 | 1.01 | 1.03 | 1.04
11 | NCI-H1437 | 0.751 | 0.762 | 0.808 | 0.873 | 0.688 | 0.548 | 0.517 | 0.549 | 0.495 | 0.571 | 0.797 | 0.635 | 0.691 | 0.795 | 0.969 | 0.934 | 0.898 | 0.971
12 | HCC-827 | 0.163 | 0.188 | 0.16 | 0.217 | 0.191 | 1.12 | 1.16 | 0.961 | 0.94 | 1.03 | 0.213 | 0.211 | 0.176 | 0.165 | 1.04 | 1.03 | 0.922 | 0.719
13 | NCI-H1650 | 0.799 | 0.918 | 0.783 | 0.719 | 0.512 | 0.731 | 0.68 | 0.583 | 0.472 | 0.327 | 0.879 | 0.547 | 0.702 | 0.861 |  |  |  | 
14 | HCC-366 | 0.954 | 1.09 | 0.916 | 1.31 | 0.915 | 0.182 | 0.164 | 0.132 | 0.143 | 0.137 | 0.89 | 1.03 | 0.99 | 1.03 | 0.432 | 0.35 | 0.421 | 0.419
15 | EKVX | 0.2 | 0.241 | 0.186 | 0.222 | 0.239 | 0.466 | 0.491 | 0.364 | 0.487 | 0.442 | 0.194 | 0.225 | 0.225 | 0.176 | 0.912 | 0.785 | 0.888 | 0.239
16 | LCLC-103H |  |  |  |  |  | 0.64 | 0.58 | 0.596 | 0.58 | 0.565 |  |  |  |  | 0.905 | 0.938 | 0.839 | 0.86
17 | ChaGo-K-1 |  |  |  |  |  | 0.419 | 0.627 | 0.736 | 0.562 | 0.7 |  |  |  |  |  |  |  | 
18 | NCI-H441 |  |  |  |  |  | 0.497 | 0.502 | 0.483 | 0.527 | 0.56 |  |  |  |  | 0.736 | 0.648 |  | 0.76
